How the values were obtained:
AMPA receptor = experiment: AMPA-induced intraneuronal calcium entry-suppressing action, primary culture of embryonic rat cerebral cortex neurons; format: cell-based; conditions: AMPA-induced increase of intracellular calcium, rat cortical neurons; read-out: IC50 for AMPA inhibition
Description: [Test Example 1] AMPA-Induced Intraneuronal Calcium Entry-Suppressing Action
With regard to the AMPA receptor inhibitory action of the compounds, AMPA-induced intraneuronal calcium entry-suppressing action was examined using a primary culture system of embryonic rat cerebral cortex neurons.
<Culture conditions> Whole fetuses were removed from the uteri of Wistar rats at embryonic day 18 (Charles River Japan) anesthetized with isoflurane. Whole brains were removed from the whole fetuses, and the cerebral cortex was separated in Leibovitz's L-15 medium, or Hanks balanced salt solution containing 20% fetal bovine serum. The resulting material was treated with trypsin/DNase solution at 37° C. for 45 to 60 minutes. After the serum was added to stop the trypsin reaction, the resulting material was centrifuged at 1200 to 1500 rpm for 3 to 5 minutes. After the supernatant was removed, Neurobasal medium (containing 2% B-27 supplement and the like; hereinafter “Neurobasal medium”) was added, and the cells were uniformly dispersed by gently pipetting. The cell suspension was slightly stirred, and then filtered through a nylon mesh filter. Viable cells were counted using a hemocytometer, and diluted with Neurobasal medium to 8 to 10×10^5 cells/mL. […]
On the day of the assay, the medium was removed and replaced with a calcium measurement solution containing 5 to 10 μmol/L of Fura 2-AM (140 mmol/L sodium chloride, 5 mmol/L potassium chloride, 2 mmol/L magnesium chloride, 3 mmol/L calcium chloride, 24 mmol/L D(+)-glucose, 10 mmol/L HEPES, 1 μmol/L MK-801, pH 7.4), and the cells were treated in a CO2 incubator (5% CO2, 37° C.) for 1 to 2 hours. […] The plates were subsequently placed on the Fluorescence Drug Screening System 6000 (Hamamatsu Photonics K.K.). […] Changes in calcium concentration were measured as the changes in fluorescence intensity at excitation wavelengths of 340 nm and 380 nm (measurement wavelength: 540 nm). The rate of change of the intracellular calcium concentration was calculated in accordance with the following equation: […]

[1] = test system: tremor induced by harmaline; experiment: Rat harmaline model (balance disorder / tremor score); format: in vivo; conditions: for Tremor score: 20 min before harmaline 20 mg/kg i.p., score 0-3
Protocol: [Test Example 2] Rat Harmaline Model
To confirm tremor-suppressing effect, a harmaline model test with rats was conducted. In this model, balance disorder observed after administration of harmaline serves as an evaluation index (Neuroscience Letter, 590, p 84-90 (2015)).
Four-week-old male SD rats (Charles River) were subjected to the test (two treatments in total, n=5 in each treatment). Balance disorder (one of tremor symptoms) induced by harmaline was used as an evaluation index (the above literature).
The compound was prepared for oral administration in 0.4% methylcellulose/5% Cremophor/5% 1 N hydrochloric acid/10% dimethylsulfoxide solution to reach an administration volume of 5 mL/kg, and orally administered. As a negative control, only the mixed solvent without the compound (Vehicle) was used. Harmaline (Sigma-Aldrich Co. LLC) was diluted with physiological saline (Otsuka Pharmaceutical Co., Ltd.) to prepare 4 mg/mL harmaline solution. Twenty minutes after administration of the compound, the 4 mg/mL harmaline solution was intraperitoneally administered (dose: 20 mg/kg). Balance disorder was observed during 10 minutes from 5 minutes to 15 minutes after the administration of harmaline, and scored in four grades of 0, 1, 2, and 3.
The results were represented as mean±standard deviation. Dunnett's multiple comparison test was used for statistical analysis, and results with p<0.05 were determined to be of statistically significant difference.

pain induced by STZ = experiment: Rat STZ model, von Frey test; format: in vivo
Protocol: [Test Example 3] Rat STZ Model
To confirm analgesic effect in an SFN model, an STZ model test with rats was conducted. The effect of the compound on pain induced 2 weeks after administration of STZ was examined.
Seven-week-old male SD rats (Charles River) were used for the test. To STZ aliquoted in advance into shading bottles, ice-cooled physiological saline (Otsuka Pharmaceutical Factory, Inc.) was added to reach 65 mg/mL, and the resultant was gently inversion-mixed with ice-cooling to dissolve STZ. After dissolving, the resultant was stored under ice-cooling, and used within 20 minutes from the initiation of preparation. About 20 hours after fasting, the animals were anesthetize with isoflurane, and the 65 mg/mL STZ solution was administered to each animal from the tail vein with a volume of […] over about 15 seconds by using a 1 mL syringe and a 26G injection needle. After 14 days after the administration of STZ, body weight and pain response before drug administration were measured (see description below on pain response), and animals for each of which the 50% response threshold to mechanical stimulation was 6 g or lower in von Frey test were selected, and grouped so as to provide no difference in 50% response thresholds and body weight among groups.
The compound was prepared for oral administration in DMSO:1 mol/L HCl:Cremophor EL:0.5% methylcellulose=10:5:5:80 to reach an administration volume of 10 mL/kg, and orally administered. As a negative control, only the mixed solvent without the compound (Vehicle) was used.
Evaluation of pain response was performed by using von Frey test under blind conditions, without involving any measurer for pain response in grouping and administration. Measurement of 50% response thresholds by von Frey test was performed in accordance with a method by Chaplan et al. (J Neurosci Methods 1994; 53: 55-63) using von Frey filaments. Each animal was put in a measurement cage with a floor of a metal mesh about 30 minutes before scheduled measurement time, and left to stand to habituate to the environmental change, and after the animal was confirmed to become calm measurement was initiated. Avon Frey filament (bending force: 0.4, 0.6, 1, 2, 4, 6, 8, 15 g; starting from 2 g) was pressed vertically to the center of the sole of the left hind leg for about 6 seconds until the filament bent, and avoidance response (such as putting back the leg) was observed. In accordance with a Dixon's up-down method (Annu Rev Pharmacol Toxicol 1980; 20: 441-462), 50% response thresholds were calculated. Measurement was performed at four points of time: before drug administration on Day 14, and 30 minute, 90 minutes, and 180 minutes after the administration.
The results were represented as mean±standard deviation. Dunnett's multiple comparison test was used for statistical analysis, and a significance level of 5% was used for both sides in all cases.

human glioma cell line = conditions: Non Patent Literature 34; cited from earlier work
[2] = test system: hyperalgesia to mechanical stimulation in STZ models; conditions: direct administration to the anterior cingulate cortex; Non Patent Literature 16; cited from earlier work
[3] = test system: dystonia in the dt^sz model; conditions: Non Patent Literature 21; cited from earlier work
[4] = test system: tremor in a harmaline animal model; conditions: Non Patent Literature 7; cited from earlier work
[5] = pre-administration, statement in words

N#Cc1c(F)cccc1-c1cc2c(n(-c3cncnc3)c1=O)COc1cccnc1-2 [Compound (II), 2-fluoro-6-(8-oxo-7-(pyrimidin-5-yl)-7,8-dihydro-6H-pyrano[3,2-b:5,4-b′]dipyridin-9-yl)benzonitrile]
IC50 (AMPA receptor): 29 nM

N#Cc1c(F)cccc1-c1cc2c(n(-c3cccnc3)c1=O)COc1cc(F)cnc1-2 [Compound (I), 2-fluoro-6-(3-fluoro-8-oxo-7-(pyridin-3-yl)-7,8-dihydro-6H-pyrano[3,2-b:5,4-b′]dipyridin-9-yl)benzonitrile]
Tremor score ([1]; 1 mg/kg oral): 1.3 ± 0.2
Tremor score ([1]; 2 mg/kg oral): 0.6 ± 0.3
Tremor score ([1]; 4 mg/kg oral): 0.4 ± 0.2
Effect on tremor scores [1, 5]: statistically significant reduction of tremor scores
IC50 (AMPA receptor): 19.4 nM
50% response threshold (pain induced by STZ; 0.6 mg/kg oral, Day 14, 30 min): 7.3 ± 1.4 g
50% response threshold (pain induced by STZ; 0.6 mg/kg oral, Day 14, 90 min): 6.6 ± 1.4 g
50% response threshold (pain induced by STZ; 0.6 mg/kg oral, Day 14, 180 min): 5.2 ± 1.1 g
50% response threshold (pain induced by STZ; 0.6 mg/kg oral, Day 14, Pre (before drug administration)): 3.6 ± 0.4 g
50% response threshold (pain induced by STZ; 2 mg/kg oral, Day 14, 30 min): 9.5 ± 1.4 g
50% response threshold (pain induced by STZ; 2 mg/kg oral, Day 14, 90 min): 8.0 ± 1.3 g
50% response threshold (pain induced by STZ; 2 mg/kg oral, Day 14, 180 min): 6.4 ± 1.1 g
50% response threshold (pain induced by STZ; 2 mg/kg oral, Day 14, Pre (before drug administration)): 3.6 ± 0.3 g
50% response threshold (pain induced by STZ; 6 mg/kg oral, Day 14, 30 min): 12.5 ± 1.1 g
50% response threshold (pain induced by STZ; 6 mg/kg oral, Day 14, 90 min): 12.1 ± 1.5 g
50% response threshold (pain induced by STZ; 6 mg/kg oral, Day 14, 180 min): 9.6 ± 1.4 g
50% response threshold (pain induced by STZ; 6 mg/kg oral, Day 14, Pre (before drug administration)): 3.6 ± 0.4 g
Analgesic effect (pain induced by STZ; [5]): Significant analgesic effect

O=C(O)Cn1c(=O)c(=O)[nH]c2cc([N+](=O)[O-])c(-n3ccnc3)cc21 [YM872]
Antitumor effect (human glioma cell line): antitumor effect

N#Cc1cc2c(cc1[N+](=O)[O-])=NC(=O)C(=O)N=2 [CNQX, 6-cyano-7-nitroquinoxaline-2,3-dione]
Effect on fever and hyperalgesia to mechanical stimulation [2]: suppressed

Cc1ncc(-n2c3c(cc(-c4cccc(F)c4C#N)c2=O)-c2ncccc2OC3)cn1 [Compound (III), 2-fluoro-6-(7-(2-methylpyrimidin-5-yl)-8-oxo-7,8-dihydro-6H-pyrano[3,2-b:5,4-b′]dipyridin-9-yl)benzonitrile]
IC50 (AMPA receptor): 44.3 nM

NS(=O)(=O)c1cccc2c1c([N+](=O)[O-])cc1[nH]c(=O)c(=O)[nH]c12 [NBQX, 2,3-dioxo-6-nitro-1,2,3,4-tetrahydrobenzo[f]quinoxaline-7-sulfonamide]
Anti-dystonia action [3]: anti-dystonia action
Effect on tremor [4]: suppresses tremor

From patent US20200383959A1, “THERAPEUTIC AGENT CONTAINING PYRANODIPYRIDINE COMPOUND” (Eisai R&D Management Co., Ltd., priority 2017, published 2020)
